From publication PMC9100673, “Acridine Based N-Acylhydrazone Derivatives as Potential Anticancer Agents: Synthesis, Characterization and ctDNA/HSA Spectroscopic Binding Properties” (Molecules, 2022)
Values belong to the molecule of their own block, whether it stands above or below them.

Experiments:
A549 cells = test: MTT assay, metabolic activity of A549 cells; assay type: cell-based, human; settings: for IC50: Homo sapiens
Description: (§1) The effect of acridine-benzohydrazides (3a–3d) on the metabolic activity of the lung adenocarcinoma cell line (A549) and the normal colon fibroblast cell line (CCD-18Co) was evaluated using a 3-(4,5-dimethylthiazol-2-yl)-2,5-diphenyltertrazolium bromide (MTT) cell assay. This assay is based on the metabolization of yellow MTT to purple formazan crystal by mitochondrial dehydrogenases, and therefore only metabolic active cells are capable of that reaction. The CCD-18Co cell line was used as a control to check for derivatives selectivity. The doxorubicin belongs to a group of anthracyclines, which represent the chemotherapeutic regiments for the treatment of NSCLC (non-small cell lung carcinoma) even today, and acts as antineoplastic mainly by interaction with the DNA topoisomerase II and by creating DNA single- and double-strand breaks. Previous studies described detailed cytotoxic effects of doxorubicin in the human lung adenocarcinoma A549 cell line. Doxorubicin resembles our compounds in its biological action; therefore, it was employed as a positive control.
(§2) Human lung carcinoma cell line A549 and CCD-18Co colon fibroblasts were purchased from the American Type Culture Collection (ATCC, Rockville, MD, USA). The A549 cells were cultured in a complete RPMI-1640 medium (Sigma-Aldrich, St. Louis, MO, USA) and CCD-18Co cells were cultured in a minimum essential medium (MEM) (PAN-Biotech GmbH, Aidenbach, Germany) at 37 °C, 95% humidity and 5% CO2. The media were supplemented with 10% fetal bovine serum (FBS, Biosera, Nuaille, France) and antibiotics (1% Antibiotic-Antimycotic 100 × and 50 × 10^−3 g L^−1 gentamicin, Biosera). Prior to the selected treatments, cells were seeded on 6- and/or 96-well plates (TPP, Trasadingen, Switzerland) and left to settle for 24 h. The acridine compounds solutions (at concentrations ranging from 5–75 µM) were then added to cells for 24 or 48 h, and analysis was subsequently performed.
(§3) MTT assays were performed in order to evaluate changes in the metabolic activity of cells that had occurred as a consequence of treatment with the acridine compounds. A549 cells (15 × 10^3 cells/cm^2) and CCD-18Co (15.625 × 10^3 cells/cm^2) were seeded in 96-well microplates. The A549 cells were treated for 24 and 48 h, and the CCD-18Co cells were treated for 48 h with different concentrations (5, 25, 50 and 75 µM) of the derivatives. After the treatment, the MTT (3-(4,5-dimethylthiazol-2-yl)-2,5-diphenyltertrazolium bromide) solution in PBS (5 mg mL^−1) was added to each well. The reaction was stopped after 4 h incubation, and the formazan was dissolved by the addition of SDS at a final concentration of 3.3%. The absorbance of formazan (λ = 584 nm) was measured using a BMG FLUOstar Optima spectrometer (BMG Labtech GmbH, Offenburg, Germany). The results were evaluated as percentages of the absorbance of the untreated control. Results are presented as the average percentage of cells from three independent experiments. IC50 values for the derivatives were extrapolated from a sigmoidal fit (dose-response curve) to the metabolic activity data using OriginPro 8.5.0 SR1 (OriginLab Corp., Northampton, MA, USA).

CCD-18Co cells = test: MTT assay, metabolic activity of CCD-18Co fibroblasts; assay type: cell-based, human; settings: 48 h
Description: as §1, §2, §3

melting point: 240 to 241 °C
SMILES: O=C(N/N=C/c1ccc(Br)cc1)c1cccc2cc3ccccc3nc12 [7d, N′-[(E)-4-Bromophenylmethylidene]acridine-4-carbohydrazide]

melting point: 243 to 244 °C
SMILES: O=C(N/N=C/c1ccc(Cl)cc1)c1cccc2cc3ccccc3nc12 [7c, N′-[(E)-4-Chlorophenylmethylidene]acridine-4-carbohydrazide]

IC50 (A549 cells; A549, 24 h): 56 µM
IC50 (A549 cells; A549, 48 h): 5 µM
SMILES: COc1cccc2c1C(=O)c1c(O)c3c(c(O)c1C2=O)C[C@@](O)(C(=O)CO)C[C@@H]3O[C@H]1C[C@H](N)[C@H](O)[C@H](C)O1 [DOXO, doxorubicin, reference compound]
effect on metabolic activity of A549 cells (A549 cells; 24 h and 48 h, 5–75 μM tested): significantly decreased
effect on metabolic activity of CCD-18Co cells (CCD-18Co cells; 5–75 μM tested): significantly decreased
IC50 (CCD-18Co cells; Homo sapiens, CCD-18Co): 5 µM

melting point: 255 to 256 °C
SMILES: O=C(N/N=C/c1ccc(F)cc1)c1cccc2cc3ccccc3nc12 [7b, N′-[(E)-4-Fluorophenylmethylidene]acridine-4-carbohydrazide]
